# Columns and labels:
# Format in all cases: biochemical
# FGFR3 = target: T1, FGFR3 (Homo sapiens, UniProt P22607); test: FGFR Enzymatic Assay (FRET peptide phosphorylation), FGFR3; conditions: ATP 140 μM, 25° C. for 1 hr
# T1 construct: purchased Millipore
# Procedure, shortened: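 FGFR3 in 50 mM HEPES pH 7.5, 10 mM […]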
# FGFR1 = target: T2, FGFR1 (Homo sapiens, UniProt P11362); test: FGFR Enzymatic Assay (FRET peptide phosphorylation), FGFR1; conditions: FGFR1 0.02 nM, ATP 210 μM
# T2 construct: purchased Millipore or Invitrogen
# T2 sequence (P11362 22-822): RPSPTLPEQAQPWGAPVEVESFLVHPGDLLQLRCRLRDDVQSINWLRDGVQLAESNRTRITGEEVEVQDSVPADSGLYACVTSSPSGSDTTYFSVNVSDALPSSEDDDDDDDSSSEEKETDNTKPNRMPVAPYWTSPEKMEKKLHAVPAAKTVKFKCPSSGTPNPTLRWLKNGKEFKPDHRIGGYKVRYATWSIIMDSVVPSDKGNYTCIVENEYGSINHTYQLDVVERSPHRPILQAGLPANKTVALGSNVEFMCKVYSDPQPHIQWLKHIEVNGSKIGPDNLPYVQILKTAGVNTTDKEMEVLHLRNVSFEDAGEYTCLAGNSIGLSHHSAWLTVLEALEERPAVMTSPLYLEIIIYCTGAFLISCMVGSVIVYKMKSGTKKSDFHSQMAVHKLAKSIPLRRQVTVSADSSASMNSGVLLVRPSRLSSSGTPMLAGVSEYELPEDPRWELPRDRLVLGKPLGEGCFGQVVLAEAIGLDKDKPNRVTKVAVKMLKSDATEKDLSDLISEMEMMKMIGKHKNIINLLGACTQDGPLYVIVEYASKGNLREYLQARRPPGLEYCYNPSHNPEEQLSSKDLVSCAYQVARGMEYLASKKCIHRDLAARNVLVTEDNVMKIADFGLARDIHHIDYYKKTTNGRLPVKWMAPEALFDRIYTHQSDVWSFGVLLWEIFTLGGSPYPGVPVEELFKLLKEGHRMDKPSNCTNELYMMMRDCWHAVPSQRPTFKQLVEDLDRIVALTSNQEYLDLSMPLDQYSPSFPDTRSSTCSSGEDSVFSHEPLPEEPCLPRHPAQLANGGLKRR
# Procedure, shortened: (§1)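 Human FGFR1 (0.02 nM) and FGFR2 (0.01 nM) were pre-incubated with compound for 5-10 min in HEPES buffer pH 7.5, then reacted at 25 °C for 1 hr with 500 nM biotinylated peptide and ATP (FGFR1 210 μM; FGFR2 100 μM). Phosphopeptide was detected by Eu-PY20/APC-streptavidin TR-FRET after EDTA quench. IC50 came from variable-slope sigmoidal fits.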
# FGFR2 = target: T3, FGFR2 (Homo sapiens, UniProt P21802); test: FGFR Enzymatic Assay (FRET peptide phosphorylation), FGFR2; conditions: FGFR2 0.01 nM, ATP 100 μM
# T3 construct: purchased Millipore or Invitrogen
# T3 sequence (P21802 22-821): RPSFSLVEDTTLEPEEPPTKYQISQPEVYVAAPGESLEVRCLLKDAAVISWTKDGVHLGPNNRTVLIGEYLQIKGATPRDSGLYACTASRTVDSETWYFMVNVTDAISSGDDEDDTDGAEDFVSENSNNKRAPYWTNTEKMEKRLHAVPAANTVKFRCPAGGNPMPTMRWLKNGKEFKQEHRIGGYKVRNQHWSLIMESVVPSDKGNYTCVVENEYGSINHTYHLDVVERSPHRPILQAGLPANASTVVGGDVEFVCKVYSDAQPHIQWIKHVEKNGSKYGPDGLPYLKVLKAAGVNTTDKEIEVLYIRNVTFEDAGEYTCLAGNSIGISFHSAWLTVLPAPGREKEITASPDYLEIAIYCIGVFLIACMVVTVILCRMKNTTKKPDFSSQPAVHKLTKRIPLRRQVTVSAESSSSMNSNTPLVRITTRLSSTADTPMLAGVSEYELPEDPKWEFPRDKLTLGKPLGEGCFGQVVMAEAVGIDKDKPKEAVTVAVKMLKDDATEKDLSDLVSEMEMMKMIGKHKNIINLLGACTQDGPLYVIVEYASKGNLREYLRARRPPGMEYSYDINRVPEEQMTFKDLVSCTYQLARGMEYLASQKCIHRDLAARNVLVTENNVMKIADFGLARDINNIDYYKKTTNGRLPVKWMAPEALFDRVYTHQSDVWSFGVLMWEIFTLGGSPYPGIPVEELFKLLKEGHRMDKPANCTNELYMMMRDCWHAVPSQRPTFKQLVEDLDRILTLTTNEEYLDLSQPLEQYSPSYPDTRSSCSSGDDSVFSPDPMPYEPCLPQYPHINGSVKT
# Procedure, shortened: as §1
# T1 sequence (P22607 23-806): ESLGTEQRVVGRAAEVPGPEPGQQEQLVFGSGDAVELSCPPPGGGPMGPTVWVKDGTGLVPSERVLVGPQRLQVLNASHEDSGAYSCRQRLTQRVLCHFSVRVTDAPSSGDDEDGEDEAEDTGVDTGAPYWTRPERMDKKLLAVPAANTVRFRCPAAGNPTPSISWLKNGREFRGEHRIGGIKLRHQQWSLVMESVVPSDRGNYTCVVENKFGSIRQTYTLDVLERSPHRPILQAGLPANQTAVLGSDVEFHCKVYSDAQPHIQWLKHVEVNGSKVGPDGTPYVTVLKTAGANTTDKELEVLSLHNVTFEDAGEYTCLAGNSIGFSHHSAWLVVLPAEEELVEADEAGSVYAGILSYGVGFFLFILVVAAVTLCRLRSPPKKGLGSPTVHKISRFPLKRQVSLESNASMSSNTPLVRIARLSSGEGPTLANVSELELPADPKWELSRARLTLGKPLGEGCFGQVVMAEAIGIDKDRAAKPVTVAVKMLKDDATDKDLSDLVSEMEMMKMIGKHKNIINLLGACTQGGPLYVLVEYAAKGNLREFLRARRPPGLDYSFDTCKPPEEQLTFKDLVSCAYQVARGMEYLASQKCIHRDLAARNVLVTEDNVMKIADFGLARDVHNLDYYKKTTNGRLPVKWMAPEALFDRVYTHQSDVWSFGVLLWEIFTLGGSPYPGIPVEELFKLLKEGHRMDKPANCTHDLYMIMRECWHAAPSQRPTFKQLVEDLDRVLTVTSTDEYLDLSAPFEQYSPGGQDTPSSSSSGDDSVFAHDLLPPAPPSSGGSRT
IC50 (FGFR3) [nM],IC50 (FGFR1) [nM],IC50 (FGFR2) [nM],Compound
< 100,< 100,< 100,"COc1cc(OC)c(F)c(-c2ncc3c(-c4ccc5c(c4)CCC(C(=O)N(C)C)O5)n[nH]c3n2)c1F (stereo not drawn) [Example 6, 6-[6-(2,6-Difluoro-3,5-dimethoxyphenyl)-1H-pyrazolo[3,4-d]pyrimidin-3-yl]-N,N-dimethylchromane-2-carboxamide]"
< 100,< 100,< 100,"COc1cc(OC)c(F)c(-c2cc3[nH]nc(-c4ccc5c(c4)CC(C(=O)N(C)C)O5)c3cn2)c1F (single isomer, unassigned) [Example 84, 5-[6-(2,6-Difluoro-3,5-dimethoxyphenyl)-1H-pyrazolo[4,3-c]pyridin-3-yl]-N,N-dimethyl-2,3-dihydro-1-benzofuran-2-carboxamide]"
< 100,< 100,< 100,"COc1cc(OC)c(Cl)c(-c2cc3[nH]nc(-c4cnn(CC(=O)N5CCN(C)CC5)c4)c3cn2)c1Cl [Example 41, 6-(2,6-Dichloro-3,5-dimethoxyphenyl)-3-{1-[2-(4-methylpiperazin-1-yl)-2-oxoethyl]-1H-pyrazol-4-yl}-1H-pyrazolo[4,3-c]pyridine]"
< 100,< 100,< 100,"COc1cc(OC)c(Cl)c(-c2cc3[nH]nc(-c4cnn(CC(=O)N5CCC(C#N)C5)c4)c3cn2)c1Cl (stereo not drawn) [Example 47, 1-({4-[6-(2,6-Dichloro-3,5-dimethoxyphenyl)-1H-pyrazolo[4,3-c]pyridin-3-yl]-1H-pyrazol-1-yl}acetyl)pyrrolidine-3-carbonitrile]"
< 100,< 100,< 100,"COc1cc(OC)c(F)c(-c2cc3[nH]nc(-c4ccc5c(c4)CN(C(C)C)C5=O)c3cn2)c1F [Example 53, 5-[6-(2,6-Difluoro-3,5-dimethoxyphenyl)-1H-pyrazolo[4,3-c]pyridin-3-yl]-2-isopropylisoindolin-1-one]"
< 100,< 100,< 100,"COc1cc(OC)c(F)c(-c2cc3[nH]nc(-c4ccc5c(c4)CN(C4CCOCC4)C5=O)c3cn2)c1F [Example 59, 5-[6-(2,6-Difluoro-3,5-dimethoxyphenyl)-1H-pyrazolo[4,3-c]pyridin-3-yl]-2-(tetrahydro-2H-pyran-4-yl)isoindolin-1-one]"
< 100,< 100,< 100,"COc1cc(OC)c(Cl)c(-c2cc3[nH]nc(-c4ccc(C(O)C(=O)N(C)C)c(F)c4)c3cn2)c1Cl (stereo not drawn) [Example 34, 2-{4-[6-(2,6-Dichloro-3,5-dimethoxyphenyl)-1H-pyrazolo[4,3-c]pyridin-3-yl]-2-fluorophenyl}-2-hydroxy-N,N-dimethylacetamide]"
< 100,< 100,< 100,"COc1cc(OC)c(F)c(-c2ncc3c(-c4ccnc(N5CCN(C)CC5)c4)n[nH]c3n2)c1F [Example 19, 6-(2,6-Difluoro-3,5-dimethoxyphenyl)-3-[2-(4-methylpiperazin-1-yl)pyridin-4-yl]-1H-pyrazolo[3,4-d]pyrimidine]"
< 100,< 100,< 100,"COc1cc(OC)c(Cl)c(-c2cc3[nH]nc(-c4cnn(CC(=O)NC5CC5)c4)c3cn2)c1Cl [Example 38, N-Cyclopropyl-2-{4-[6-(2,6-dichloro-3,5-dimethoxyphenyl)-1H-pyrazolo[4,3-c]pyridin-3-yl]-1H-pyrazol-1-yl}acetamide]"

# Source: patent publication US9266892B2, “Fused pyrazoles as FGFR inhibitors” (Incyte Corporation, priority 2012, dated 2016)
